From article PMC8698657, “Absorption and Transport Characteristics and Mechanisms of Carnosic Acid” (Biology, 2021)
Read-outs that look alike come from different tables or passages of the source.

Assay: Trans-enterocyte transport of CA in Caco-2 cell monolayer
Assay type: in vitro ADME, human
Conditions: human
Method: Caco-2 were cultured in EMEM complete medium containing 10% FBS, 1% non-essential amino acids, and 1% penicillin-streptomycin double antibody, and the culture conditions were 37 °C, 5% CO2, in a constant temperature incubator [16]. We first established non-toxic dose ranges of CA in Caco-2 cells using MTT assay. Dimethylsulfoxide (DMSO) was used as the vehicle to deliver CA to the cells. The final concentration of DMSO in all experiments was 0.1% (v/v) in cell culture media. Caco-2 cells were seeded in a 96-well plate at a cell density of 5 × 10^4 cells/mL per well, and cultured under 5% CO2 and 37 °C for 24 h. A quantity of 200 μL of medium was added to each well to obtain a series of CA solutions (concentrations of 25, 50, 75, and 100 μmoL). After 48 h of treatment, Caco-2 cells were subjected to the MTT assay as described previously. For the transport study, Caco-2 cells were seeded on the apical compartment (AP) of 12-well Transwell plates at a density of 2 × 10^5 cells/mL. The complete culture medium was added into basolateral (BL) and AP compartments. The basolateral medium was replaced every other day.
CA was dissolved in HBSS solution at 50, 75, and 100 μM. The HBSS solution containing CA combined with 0.5% Tween 80, 5 mmol/L EDTA or 5% PEG 400 was prepared. The cumulative migration (Qr), apparent permeability coefficient (Papp), and the Papp value of bi-direction transport of CA were calculated according to formulas.
The 0.5 mL […] containing different concentrations of CA was added to the AP side of the 12-well Transwell plate, and 1.5 mL HBSS solution was added to the BL side. At 0, 0.5, 1, 1.5, 2, 2.5, and 3 h, 0.2 mL medium was taken from the BL side and stored at −80 °C. The TEER value of each Transwell chamber was measured.
The cryopreserved Transwell samples were transferred to a 15 mL centrifuge tube, and any remaining liquid was fully washed using 1 mL of 50% methanol solution which was also transferred to the 15 mL centrifuge tube. The mixture was vortexed for 1 min, and 6 mL of ethyl acetate solution was added to the tube and vortexed for another 2 min. The mixture was centrifuged at 6000 rpm/min at 4 °C for 10 min. The supernatant was dried under vacuum, dissolved in 5% phosphoric acid methanol solution, and filtered through a 0.22 μm microporous membrane. The concentration of CA was determined by HPLC as described above.

[1] = Caco-2, CA 50 μM, Average of 0.5-3.0 h

Q: Which Papp B→A at 0.5 h, 50 μM (Caco-2, CA 50 μM, 0.5 h) does the source give for CC(C)c1cc2c(c(O)c1O)[C@@]1(C(=O)O)CCCC(C)(C)[C@@H]1CC2 [CA, Carnosic acid] here?
A: 0.12 ± 0.1 ×10⁻⁶ cm/s

Q: And the efflux ratio at 0.5 h, 50 μM (Caco-2, CA 50 μM, 0.5 h)?
A: 0.42

Q: And the Papp A→B at 0.5 h, 50 μM (Caco-2, CA 50 μM, 0.5 h, CA alone, read-out: Papp AP to BL)?
A: 0.28 ± 0.07 ×10⁻⁶ cm/s

Q: What about the Papp A→B at 0.5 h, 50 μM (Caco-2, CA 50 μM, 0.5 h, read-out: Papp AP-BL) of the same compound?
A: 0.28 ± 0.07 ×10⁻⁶ cm/s

Q: And the Papp B→A at 1 h, 50 μM (Caco-2, CA 50 μM, 1.0 h)?
A: 0.21 ± 0.09 ×10⁻⁶ cm/s

Q: What about the efflux ratio at 1 h, 50 μM (Caco-2, CA 50 μM, 1.0 h) of the same compound?
A: 0.58

Q: What about the Papp A→B at 1 h, 50 μM (Caco-2, CA 50 μM, 1.0 h, CA alone, read-out: Papp AP to BL) of the same compound?
A: 0.36 ± 0.01 ×10⁻⁶ cm/s

Q: What about the Papp A→B at 1 h, 50 μM (Caco-2, CA 50 μM, 1.0 h, read-out: Papp AP-BL) of the same compound?
A: 0.36 ± 0.01 ×10⁻⁶ cm/s

Q: And the Papp B→A at 1.5 h, 50 μM (Caco-2, CA 50 μM, 1.5 h)?
A: 0.36 ± 0.06 ×10⁻⁶ cm/s

Q: What about the efflux ratio at 1.5 h, 50 μM (Caco-2, CA 50 μM, 1.5 h) of the same compound?
A: 0.52

Q: And the Papp A→B at 1.5 h, 50 μM (Caco-2, CA 50 μM, 1.5 h, CA alone, read-out: Papp AP to BL)?
A: 0.69 ± 0.09 ×10⁻⁶ cm/s

Q: What about the Papp A→B at 1.5 h, 50 μM (Caco-2, CA 50 μM, 1.5 h, read-out: Papp AP-BL) of the same compound?
A: 0.69 ± 0.09 ×10⁻⁶ cm/s

Q: And the Papp B→A at 2 h, 50 μM (Caco-2, CA 50 μM, 2.0 h)?
A: 0.49 ± 0.07 ×10⁻⁶ cm/s

Q: What about the efflux ratio at 2 h, 50 μM (Caco-2, CA 50 μM, 2.0 h) of the same compound?
A: 0.44

Q: What about the Papp A→B at 2 h, 50 μM (Caco-2, CA 50 μM, 2.0 h, CA alone, read-out: Papp AP to BL) of the same compound?
A: 1.11 ± 0.04 ×10⁻⁶ cm/s

Q: What about the Papp A→B at 2 h, 50 μM (Caco-2, CA 50 μM, 2.0 h, read-out: Papp AP-BL) of the same compound?
A: 1.11 ± 0.04 ×10⁻⁶ cm/s

Q: And the Papp B→A at 2.5 h, 50 μM (Caco-2, CA 50 μM, 2.5 h)?
A: 0.56 ± 0.05 ×10⁻⁶ cm/s

Q: And the efflux ratio at 2.5 h, 50 μM (Caco-2, CA 50 μM, 2.5 h)?
A: 0.98

Q: What about the Papp A→B at 2.5 h, 50 μM (Caco-2, CA 50 μM, 2.5 h, CA alone, read-out: Papp AP to BL) of the same compound?
A: 0.57 ± 0.03 ×10⁻⁶ cm/s

Q: And the Papp A→B at 2.5 h, 50 μM (Caco-2, CA 50 μM, 2.5 h, read-out: Papp AP-BL)?
A: 0.57 ± 0.03 ×10⁻⁶ cm/s

Q: What about the Papp B→A at 3 h, 50 μM (Caco-2, CA 50 μM, 3.0 h) of the same compound?
A: 0.29 ± 0.03 ×10⁻⁶ cm/s

Q: And the efflux ratio at 3 h, 50 μM (Caco-2, CA 50 μM, 3.0 h)?
A: 1.32

Q: What about the Papp A→B at 3 h, 50 μM (Caco-2, CA 50 μM, 3.0 h, CA alone, read-out: Papp AP to BL) of the same compound?
A: 0.22 ± 0.02 ×10⁻⁶ cm/s

Q: What about the Papp A→B at 3 h, 50 μM (Caco-2, CA 50 μM, 3.0 h, read-out: Papp AP-BL) of the same compound?
A: 0.22 ± 0.02 ×10⁻⁶ cm/s

Q: And the Papp B→A at 50 μM [1]?
A: 0.33 ± 0.03 ×10⁻⁶ cm/s

Q: What about the efflux ratio at 50 μM [1] of the same compound?
A: 0.62

Q: What about the Papp A→B at 50 μM (Caco-2, CA 50 μM, Average of 0.5-3.0 h, CA alone, read-out: Papp AP to BL) of the same compound?
A: 0.54 ± 0.05 ×10⁻⁶ cm/s

Q: What about the Papp A→B at 50 μM (Caco-2, CA 50 μM, Average of 0.5-3.0 h, read-out: Papp AP-BL) of the same compound?
A: 0.53 ± 0.02 ×10⁻⁶ cm/s

Q: And the Papp B→A at 0.5 h, 75 μM (Caco-2, CA 75 μM, 0.5 h)?
A: 0.91 ± 0.02 ×10⁻⁶ cm/s

Q: What about the efflux ratio at 0.5 h, 75 μM (Caco-2, CA 75 μM, 0.5 h) of the same compound?
A: 0.88

Q: And the Papp A→B at 0.5 h, 75 μM (Caco-2, CA 75 μM, 0.5 h, CA alone, read-out: Papp AP to BL)?
A: 1.03 ± 0.01 ×10⁻⁶ cm/s

Q: And the Papp A→B at 0.5 h, 75 μM (Caco-2, CA 75 μM, 0.5 h, read-out: Papp AP-BL)?
A: 1.03 ± 0.01 ×10⁻⁶ cm/s

Q: What about the Papp B→A at 1.5 h, 75 μM (Caco-2, CA 75 μM, 1.5 h) of the same compound?
A: 0.79 ± 0.07 ×10⁻⁶ cm/s

Q: And the efflux ratio at 1.5 h, 75 μM (Caco-2, CA 75 μM, 1.5 h)?
A: 0.95

Q: What about the Papp A→B at 1.5 h, 75 μM (Caco-2, CA 75 μM, 1.5 h, CA alone, read-out: Papp AP to BL) of the same compound?
A: 0.83 ± 0.01 ×10⁻⁶ cm/s

Q: And the Papp A→B at 1.5 h, 75 μM (Caco-2, CA 75 μM, 1.5 h, read-out: Papp AP-BL)?
A: 0.83 ± 0.01 ×10⁻⁶ cm/s

Q: What about the Papp B→A at 2 h, 75 μM (Caco-2, CA 75 μM, 2.0 h) of the same compound?
A: 0.62 ± 0.01 ×10⁻⁶ cm/s

Q: What about the efflux ratio at 2 h, 75 μM (Caco-2, CA 75 μM, 2.0 h) of the same compound?
A: 0.33

Q: And the Papp A→B at 2 h, 75 μM (Caco-2, CA 75 μM, 2.0 h, CA alone, read-out: Papp AP to BL)?
A: 1.84 ± 0.1 ×10⁻⁶ cm/s

Q: What about the Papp A→B at 2 h, 75 μM (Caco-2, CA 75 μM, 2.0 h, read-out: Papp AP-BL) of the same compound?
A: 1.84 ± 0.1 ×10⁻⁶ cm/s

Q: What about the Papp B→A at 2.5 h, 75 μM (Caco-2, CA 75 μM, 2.5 h) of the same compound?
A: 0.41 ± 0.03 ×10⁻⁶ cm/s

Q: And the efflux ratio at 2.5 h, 75 μM (Caco-2, CA 75 μM, 2.5 h)?
A: 0.49

Q: And the Papp A→B at 2.5 h, 75 μM (Caco-2, CA 75 μM, 2.5 h, CA alone, read-out: Papp AP to BL)?
A: 0.83 ± 0.01 ×10⁻⁶ cm/s

Q: And the Papp A→B at 2.5 h, 75 μM (Caco-2, CA 75 μM, 2.5 h, read-out: Papp AP-BL)?
A: 0.83 ± 0.01 ×10⁻⁶ cm/s
